Assays:
[1] = biological target: T1, human CD1d (Homo sapiens, UniProt P15813); experiment: SPR, lipid-loaded CD1d immobilised, TCR injected; conditions: lipid loaded at 3-6 fold molar excess overnight; binding seen through TCR recognition; HBS-T pH 7.4, 25 °C
T1 construct: soluble CD1d with C-terminal BirA biotin ligase tag and B2M, baculovirus/High Five insect cells, IMAC and gel filtration; biotinylated; with Beta-2-microglobulin

[2] = biological target: T1, human CD1d; experiment: lipid-loaded CD1d tetramer staining of TCR-transduced Jurkat cells; format: cell-based; conditions: binding seen through TCR recognition (9B1, 9B2 lines)

T1 sequence (P15813 20-295 limits assumed): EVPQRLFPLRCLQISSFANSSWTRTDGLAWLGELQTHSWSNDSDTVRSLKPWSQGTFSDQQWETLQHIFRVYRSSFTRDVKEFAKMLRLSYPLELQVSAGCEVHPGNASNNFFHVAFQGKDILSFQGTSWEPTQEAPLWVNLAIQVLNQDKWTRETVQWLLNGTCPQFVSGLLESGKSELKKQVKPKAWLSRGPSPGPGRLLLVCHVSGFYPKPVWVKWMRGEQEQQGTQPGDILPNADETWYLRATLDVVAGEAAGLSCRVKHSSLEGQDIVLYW
T1 sequence (P61769 21-119 partner): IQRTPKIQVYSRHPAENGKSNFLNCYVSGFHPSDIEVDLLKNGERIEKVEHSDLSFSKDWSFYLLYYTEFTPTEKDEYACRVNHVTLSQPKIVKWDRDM

| Structure (SMILES) | SPR, lipid-loaded CD1d immobilised, TCR injected [1] | lipid-loaded CD1d tetramer staining of TCR-transduced Jurkat cells [2] |
| --- | --- | --- |
| CCCCCCCCCCCCCCCCCCCCCCCCCC(=O)N[C@@H](CO[C@H]1O[C@H](CO)[C@@H](O)[C@H](O)[C@H]1O)[C@H](O)[C@H](O)CCCCCCCCCCCCCC [α-GlcCer (C26:0)] | yet was well-tolerated by NKT15 TCR | – |
| CCCCCCCCCCCCCCCCCCCCCCCCCC(=O)N[C@@H](CO[C@H]1O[C@H](CO)C[C@H](O)[C@H]1O)[C@H](O)CCCCCCCCCCCCCCC | no negative impact of this analogue on NKT15 or 9B2 TCR binding | – |
| CCCCCCCCCCCCC/C=C/[C@@H](O)[C@H](CO[C@@H]1O[C@H](CO)[C@H](O)[C@H](O)[C@H]1O)NC(=O)CCCCCCCCCCC [β-GalCer (C12)] | – | These 9B1 and 9B2 TCRs also reacted to a lesser extent with β-GalCer |
| CCCCCCCCCCCCCCCCCCCCCCCCCC(=O)N[C@@H](CO[C@H]1O[C@H](CO)[C@H](O)C[C@H]1O)[C@H](O)CCCCCCCCCCCCCCC [3′-deoxy-α-GalCer] | affinity of the 9C1 and 9B2 TCRs towards CD1d-3′-deoxy-α-GalCer | – |
| CCCCCCCC/C=C\CCCCCCCCCCCCCC(=O)N[C@@H](CO[C@@H]1O[C@H](CO)[C@@H](O)[C@H](O)[C@H]1O)[C@H](O)/C=C/CCCCCCCCCCCCC [β-GlcCer (C24:1)] | – | we detected clear reactivity of Jurkat.9B1 and Jurkat.9B2 cell lines to β-GlcCer |

Source: paper PMC4756352, “Atypical natural killer T-cell receptor recognition of CD1d–lipid antigens” (Nature Communications, 2016)
